In patent US4387238A, “Epoxysuccinamic acid compounds” (Taisho Pharmaceutical Co., Ltd., priority 1978, dated 1983):

What follows are molecules tested against T1, papain (Carica papaya, UniProt P00784) (assay: Papain inhibitory activity (milk casein proteolysis)). Settings: amount of inhibitor for 50% inhibition; pH 6.8, 40° C., casein substrate.
T1 construct: purchased Sigma Chem. Co
T1 sequence (P00784 134-345): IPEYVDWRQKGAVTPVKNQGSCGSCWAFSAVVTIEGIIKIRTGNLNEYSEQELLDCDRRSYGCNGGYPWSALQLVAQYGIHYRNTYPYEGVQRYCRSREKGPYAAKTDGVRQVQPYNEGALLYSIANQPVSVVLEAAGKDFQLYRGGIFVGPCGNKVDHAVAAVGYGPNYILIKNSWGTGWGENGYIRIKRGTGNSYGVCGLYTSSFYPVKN
Format: biochemical
Design: unit not given beside the values
Experimental: Papain inhibitory activity of the compounds of the present invention was assayed as follows: To 0.5 ml of a solution of papain (80 μg/ml, Sigma Chem. Co., 2x, cry.), were added 0.25 ml of 40 mM cysteine dissolved in 20 mM disodium ethylenediamine tetraacetic acid solution adjusted pH to 6.8 with sodium hydroxide and 0.25 ml of 33 mM phosphate buffer (pH 6.8) with or without inhibitor. After incubation for 15 minutes at 40° C., the resulting mixture was added to 5 ml of 1% milk casein solution in the same buffer as described above, and further incubated for 10 minutes at 40° C. Then the mixture was mixed with 5 ml of 0.44 M trichloroacetic acid solution and followed by filtration with a sheet of Toyo filter paper No. 4.
The extinction of the filtrate was read at 280 nm. The percent inhibition was calculated from the formula, 100×(B-A)/B; wherein B stands for the absorbance without inhibitor and A for the absorbance with inhibitor. The compound Nos. in Table 2 are as defined in Examples as described hereinafter.

Structure (SMILES) | ID50
CCOC(=O)[C@@H]1O[C@H]1C(=O)Nc1cccc(C(F)(F)F)c1 (relative stereo) [Compound No. 2, ethyl N-3'-trifluoromethylphenyl-2,3-epoxysuccinamate] | 40.30 γ
CCOC(=O)[C@@H]1O[C@H]1C(=O)Nc1cccc(C(C)=O)c1 (relative stereo) [Compound No. 3, ethyl N-3'-acetylphenyl-2,3-epoxysuccinamate] | 34.72 γ
CCOC(=O)[C@@H]1O[C@H]1C(=O)Nc1ccccc1O (relative stereo) [Compound No. 4, ethyl N-2'-hydroxyphenyl-2,3-epoxysuccinamate] | 138.88 γ
CCOC(=O)[C@@H]1O[C@H]1C(=O)Nc1ccc(Br)cc1 (relative stereo) [Compound No. 6, ethyl N-4'-bromophenyl-2,3-epoxysuccinamate] | 25.51 γ
CCOC(=O)c1ccccc1NC(=O)[C@@H]1O[C@H]1C(=O)OCC (relative stereo) [Compound No. 7, ethyl N-2'-carboethoxyphenyl-2,3-epoxysuccinamate] | 105.93 γ
CCOC(=O)[C@@H]1O[C@H]1C(=O)Nc1c(Cl)cccc1Cl (relative stereo) [Compound No. 8, ethyl N-2',6'-dichlorophenyl-2,3-epoxysuccinamate] | 208.33 γ
CCOC(=O)[C@@H]1O[C@H]1C(=O)Nc1c(Br)cc(Br)cc1Br (relative stereo) [Compound No. 9, ethyl N-2',4',6'-tribromophenyl-2,3-epoxysuccinamate] | 120.19 γ
CCOC(=O)[C@@H]1O[C@H]1C(=O)Nc1cccc(F)c1 (relative stereo) [Compound No. 10, ethyl N-3'-fluorophenyl-2,3-epoxysuccinamate] | 32.05 γ
CCOC(=O)[C@@H]1O[C@H]1C(=O)Nc1ccccn1 (relative stereo) [Compound No. 11, ethyl N-2'-pyridinyl-2,3-epoxysuccinamate] | 25.05 γ
CCOC(=O)[C@@H]1O[C@H]1C(=O)Nc1cccc2cccnc12 (relative stereo) [Compound No. 12, ethyl N-8'-quinolinyl-2,3-epoxysuccinamate] | 20.16 γ
CCOC(=O)[C@@H]1O[C@H]1C(=O)NCc1ccccc1 (relative stereo) [Compound No. 13, ethyl N-benzyl-2,3-epoxysuccinamate] | 13.30 γ
CCOC(=O)[C@@H]1O[C@H]1C(=O)NCc1ccco1 (relative stereo) [Compound No. 14, ethyl N-furfuryl-2,3-epoxysuccinamate] | 67.57 γ
CCOC(=O)[C@@H]1O[C@H]1C(=O)NCCc1ccccc1 (relative stereo) [Compound No. 15, ethyl N-phenethyl-2,3-epoxysuccinamate] | 26.04 γ
CCCNC(=O)[C@@H]1O[C@H]1C(=O)OCC (relative stereo) [Compound No. 16, ethyl N-propyl-2,3-epoxysuccinamate] | 22.73 γ
CCOC(=O)[C@@H]1O[C@H]1C(=O)NCCC(C)C (relative stereo) [Compound No. 17, ethyl N-isoamyl-2,3-epoxysuccinamate] | 28.41 γ
CCOC(=O)[C@@H]1O[C@H]1C(=O)NC1CCCC1 (relative stereo) [Compound No. 18, ethyl N-cyclopentyl-2,3-epoxysuccinamate] | 22.36 γ
CCOC(=O)[C@@H]1O[C@H]1C(=O)NC1CCCCC1 (relative stereo) [Compound No. 19, ethyl N-cyclohexyl-2,3-epoxysuccinamate] | 20.83 γ
CCOC(=O)[C@@H]1O[C@H]1C(=O)NCC1CCCCC1 (relative stereo) [Compound No. 20, ethyl N-cyclohexanemethyl-2,3-epoxysuccinamate] | 20.49 γ
CCOC(=O)[C@@H]1O[C@H]1C(=O)N1CCOCC1 (relative stereo) [Compound No. 21] | 93.28 γ
CCOC(=O)[C@@H]1O[C@H]1C(=O)N1CCSCC1 (relative stereo) [Compound No. 22, ethyl N-thiadiethylene-2,3-epoxysuccinamate] | 95.01 γ
CCOC(=O)[C@@H]1O[C@H]1C(=O)N1CCN(C)CC1 (relative stereo) [Compound No. 23, ethyl N-N'-methylaminodiethylene-2,3-epoxysuccinamate] | 868.05 γ
O=C(Nc1ccc(I)cc1)[C@@H]1O[C@H]1C(=O)OC1CCCC1 (relative stereo) [Compound No. 24, cyclopentyl N-4'-iodophenyl-2,3-epoxysuccinamate] | 3.47 γ

Structure (SMILES) | ID50
O=C(Nc1ccccc1)[C@@H]1O[C@H]1C(=O)OCCC1CCCC1 (relative stereo) [Compound No. 26, 2'-cyclopentylethyl N-phenyl-2,3-epoxysuccinamate] | 2.08 γ
O=C(Nc1ccccc1)[C@@H]1O[C@H]1C(=O)OCCCC1CCCCC1 (relative stereo) [Compound No. 27, 3'-cyclohexylpropyl N-phenyl-2,3-epoxysuccinamate] | 3.05 γ
O=C(Nc1ccccc1)[C@@H]1O[C@H]1C(=O)Oc1ccccc1 (relative stereo) [Compound No. 28, phenyl N-phenyl-2,3-epoxysuccinamate] | 6.41 γ
COc1ccccc1NC(=O)[C@@H]1O[C@H]1C(=O)OCc1ccccc1 (relative stereo) [Compound No. 29, benzyl N-2'-methoxyphenyl-2,3-epoxysuccinamate] | 2.91 γ
C=CCOC(=O)[C@@H]1O[C@H]1C(=O)Nc1ccccc1 (relative stereo) [Compound No. 30, allyl N-phenyl-2,3-epoxysuccinamate] | 3.68 γ
CCOC(=O)[C@@H]1O[C@H]1C(=O)N(C)CC1CCCCC1 (relative stereo) [Compound No. 32, ethyl N-methyl-N-cyclohexanemethyl-2,3-epoxysuccinamate] | 71.40 γ
COC(=O)[C@@H]1O[C@H]1C(=O)Nc1ccccc1C (relative stereo) [Compound No. 35, Methyl N-2'-methylphenyl-2,3-epoxysuccinamate] | 16.52 γ
CCCOC(=O)[C@@H]1O[C@H]1C(=O)Nc1ccc(I)cc1 (relative stereo) [Compound No. 36, Propyl N-4'-iodophenyl-2,3-epoxysuccinamate] | 4.04 γ
COc1ccccc1NC(=O)[C@H]1O[C@@H]1C(=O)OC(C)C (relative stereo) [Compound No. 37, Isopropyl N-2'-methoxyphenyl-2,3-epoxysuccinamate] | 5.81 γ
CC(C)COC(=O)[C@H]1O[C@@H]1C(=O)NCc1ccco1 (relative stereo) [Compound No. 39, Isobutyl N-furfuryl-2,3-epoxysuccinamate] | 3.08 γ
CC#CCOC(=O)[C@H]1O[C@@H]1C(=O)NCC (relative stereo) [Compound No. 41, 2'-Butynyl N-ethyl-2,3-epoxysuccinamate] | 15.23 γ
CC#CCOC(=O)[C@@H]1O[C@H]1C(=O)NCc1cccs1 (relative stereo) [Compound No. 42, 2'-Butynyl N-thenyl-2,3-epoxysuccinamate] | 14.15 γ
CC(C)CCOC(=O)[C@H]1O[C@@H]1C(=O)Nc1ccccc1 (relative stereo) [Compound No. 43, Isoamyl N-phenyl-2,3-epoxysuccinamate] | 3.01 γ
O=C(NC1CCCCC1)[C@H]1O[C@@H]1C(=O)OC1CCCCC1 (relative stereo) [Compound No. 44, Cyclohexyl N-cyclohexyl-2,3-epoxysuccinamate] | 3.14 γ
O=C(Nc1ccccc1)[C@H]1O[C@@H]1C(=O)OC1C=CCC1 (relative stereo) [Compound No. 46, 2'-Cyclopentenyl N-phenyl-2,3-epoxysuccinamate] | 2.98 γ
O=C(NC1CCCC1)[C@H]1O[C@@H]1C(=O)Oc1ccccc1 (relative stereo) [Compound No. 47, Phenyl N-cyclopentyl-2,3-epoxysuccinamate] | 3.64 γ
O=C(Nc1cccc(F)c1)[C@H]1O[C@@H]1C(=O)OCc1ccccc1 (relative stereo) [Compound No. 49, Benzyl N-3'-fluorophenyl-2,3-epoxysuccinamate] | 3.94 γ
COC(=O)[C@H]1O[C@@H]1C(=O)Nc1ccccc1 (relative stereo) [Compound No. 50, methyl N-phenyl-2,3-epoxysuccinamate] | 16.95 γ
CCOC(=O)[C@H]1O[C@@H]1C(=O)Nc1cccc(C)c1 (relative stereo) [Compound No. 51, ethyl N-3'-methylphenyl-2,3-epoxysuccinamate] | 18.66 γ
CCCCOC(=O)[C@H]1O[C@@H]1C(=O)Nc1ccccc1 (relative stereo) [Compound No. 52, butyl N-phenyl-2,3-epoxysuccinamate] | 5.32 γ
O=C(Nc1ccccc1)[C@H]1O[C@@H]1C(=O)OCC1CC=CCC1 (relative stereo) [Compound No. 53, 3'-cyclohexenemethyl N-phenyl-2,3-epoxysuccinamate] | 1.63 γ
CCNC(=O)[C@H]1O[C@@H]1C(=O)OC (relative stereo) [Compound No. 54, methyl N-ethyl-2,3-epoxysuccinamate] | 10.07 γ
